Blank lines part the entries; values can stand above or below the compound they belong to.
How the values were obtained:
[1] = tested on: JIMT1; assay: Breast cancer cell line viability, PHI-101 alone (Example 1); assay type: cell-based; details: Homo sapiens, JIMT-1; JIMT1, non-triple-negative breast cancer; 72 hours; Celltiter-Glo
Procedure: (§1) Each of the breast cancer cell lines shown in Table 1 below was cultured with DMEM (Dulbecco's Modified Eagle Medium) or RPMI1640 in a 100-mm culture dish (SPL) under 5% CO2 at 37° C., and then diluted to a density of 3,000 cells/90 μl using PBS (phosphate-buffered saline) (Biosesang).
(§2) Next, 90 μl of each of the diluted breast cancer cell lines was treated with 10 μl of a 1:2 serial dilution of a hydrochloride salt of the compound represented by Formula 1 (hereinafter referred to as “PHI-101”) to a final concentration of up to 100 μM, and then cultured under 5% CO2 at 37° C. for 72 hours. After culture, the cells were counted using a Celltiter-Glo assay kit (Promega), and cell viability was measured by expressing the cell count as a percentage relative to that of a control group not treated with PHI-101.
(§3) The IC50 of PHI-101 for each breast cancer cell line was calculated by sigmoidal curve fitting using the PRIZM software, and the results of the calculation are shown in Table 2 below. It was confirmed that PHI-101 had excellent ability to inhibit the breast cancer cell lines, and that PHI-101 also had excellent ability to inhibit the triple-negative breast cancer cell lines (FIGS. 1 to 3).

[2] = tested on: HCC1937; assay: as above; assay type: cell-based; details: Homo sapiens; HCC1937, triple-negative breast cancer; 72 hours; Celltiter-Glo
Procedure: as §1, §2, §3

[3] = tested on: T47D; assay: as above; assay type: cell-based; details: Homo sapiens, non-triple-negative breast cancer, 72 hours, Celltiter-Glo
Procedure: as §1, §2, §3

[4] = tested on: MCF7; assay: as above; assay type: cell-based; details: Homo sapiens; MCF7, non-triple-negative breast cancer; 72 hours; Celltiter-Glo
Procedure: as §1, §2, §3

[5] = tested on: BT549; assay: as above; assay type: cell-based; details: Homo sapiens, BT-549; BT549, triple-negative breast cancer; 72 hours; Celltiter-Glo
Procedure: as §1, §2, §3

[6] = tested on: SK-BR-3; assay: as above; assay type: cell-based; details: Homo sapiens; SK-BR-3, non-triple-negative breast cancer; 72 hours; Celltiter-Glo
Procedure: as §1, §2, §3

[7] = tested on: HS578T; assay: as above; assay type: cell-based; details: Homo sapiens, Hs-578T, triple-negative breast cancer, 72 hours, Celltiter-Glo
Procedure: as §1, §2, §3

[8] = tested on: MDA-MB-231; assay: as above; assay type: cell-based; details: Homo sapiens; MDA-MB-231, triple-negative breast cancer; 72 hours; Celltiter-Glo
Procedure: as §1, §2, §3

[9] = tested on: BT474; assay: as above; assay type: cell-based; details: Homo sapiens, BT-474; BT474, non-triple-negative breast cancer; 72 hours; Celltiter-Glo
Procedure: as §1, §2, §3

[10] = tested on: ZR-75-1; assay: as above; assay type: cell-based; details: Homo sapiens; ZR-75-1, non-triple-negative breast cancer; 72 hours; Celltiter-Glo
Procedure: as §1, §2, §3

[11] = tested on: MDA-MB-468; assay: as above; assay type: cell-based; details: Homo sapiens; MDA-MB-468, triple-negative breast cancer; 72 hours; Celltiter-Glo
Procedure: as §1, §2, §3

[12] = tested on: MDA-MB-435; assay: as above; assay type: cell-based; details: Homo sapiens; MDA-MB-435, triple-negative breast cancer; 72 hours; Celltiter-Glo
Procedure: as §1, §2, §3

[13] = tested on: MDA-MB-468; assay: Tumor inhibitory activity in mice with MDA-MB-468 tumors (Example 5); assay type: in vivo, NOD SCID female mice; details: MDA-MB-468 tumors in mice; olaparib 50 mg/kg/day, PHI-101 60 mg/kg/day; treated 28 days
Procedure: (§4) The breast cancer cell line MDA-MB-468 was monolayer-cultured in an L-15 medium supplemented with 10% heat-inactivated fetal bovine serum under 5% CO2 at 37° C. The tumor cells were subcultured so as not to exceed passages 4 to 5 before confluence by trypsin-EDTA treatment. The tumor cells growing in an exponential growth phase were harvested and counted for tumor inoculation.
(§5) As mice, 6-8-week-old NOD SCID female mice (18 to 22 g) (GemPharmatech Co., Ltd) were prepared. The mice were quarantined for 7 days before use in the experiment, and mice with abnormal health were excluded from the experiment. The mice were housed in cages (300×180×150 mm) at 22±3° C. and a relative humidity of 40% to 70% under a 12-hour light/12-hour dark cycle. During the entire experimental period except for the period specified by the protocol, the mice were allowed to freely access sterilized dry granular food (Beijing Keaoxieli Feed Co., Ltd., Beijing, China) and water.
(§6) For tumor induction, MDA-MB-468 breast cancer cells (1×10^7) in 0.1 ml of a mixture (1:1) of L-15 and Matrigel (BD, cat. No. 356234) were injected subcutaneously into the right flank of each mouse. […] Then, five mice were allocated for each group so that the average tumor volume was the same between the groups at the time point of treatment.
Measurement of the tumor volume was performed with calipers twice a week. The tumor volume (TV) (mm^3) was calculated using the following equation. TV=a×b^2/2
The tumor growth inhibition (TGI) rate was calculated according to the following equation using the tumor volume. TGI (%)=(1−T/C)×100
T=final tumor volume of experimental group/initial tumor volume of experimental group
C=final tumor volume of control group/initial tumor volume of control group
In order to evaluate whether PHI-101 and/or olaparib affects tumor inhibition in the mice, the volume and growth inhibition rate of the tumor generated by the breast cancer cell line MDA-MB-468 transplanted into the mice were analyzed according to Example 5-1-6.

[14] = Mouse body weight change in MDA-MB-468 tumor model (Example 5); assay type: in vivo, NOD SCID female mice; details: MDA-MB-468 tumor mice; olaparib 50 mg/kg/day, PHI-101 60 mg/kg/day; 28 days; FIG. 14
Procedure: as §5, §6
The body weight of each mouse was measured twice a week, and the change (%) in body weight (BW) was calculated using the following equation. BW change (%)=(BWPG-Dx/BWPG-D1)×100
In order to evaluate whether PHI-101 and/or olaparib affected the body weight of each mouse, the change in the body weight of each mouse was analyzed according to Example 5-1-5.

[15] = tested on: JIMT-1; assay: Tumor inhibitory activity in mice with Herceptin-resistant JIMT-1 tumors (Example 6); assay type: in vivo, NOD SCID female mice; details: JIMT-1 tumors in mice; PHI-101 60 mg/kg/day vs Herceptin 5 mg/kg/day; 3 weeks; FIG. 16
Procedure: as §4, with “The Herceptin-resistant breast cancer” for “The breast cancer”, “cell line JIMT-1 was monolayer-cultured” for “cell line MDA-MB-468 was monolayer-cultured”
As mice, 7-8-week-old NOD SCID female mice (20 to 22 g) (GemPharmatech Co., Ltd.) were prepared. The mice were quarantined for 7 days before use in the experiment, and mice with abnormal health were excluded from the experiment. The mice were housed in cages (300×180×150 mm) at 22±3° C. and a relative humidity of 40% to 70% under a 12-hour light/12-hour dark cycle. […]
Measurement of the tumor volume was performed with calipers twice a week. The tumor volume (TV) (mm^3) was calculated using the following equation. […]
The tumor growth inhibition (TGI) rate was calculated according to the following equation using the tumor volume. […]
In order to evaluate whether PHI-101 has an effect on tumor inhibition in the mice, the volume and growth inhibition rate of the tumor generated by the breast cancer cell line JIMT-1 transplanted into the mice were analyzed by performing Example 6-1-5.

[16] = tested on: T47D; assay: Cell viability, PHI-101 alone or with cisplatin (Example 2); assay type: cell-based; details: Homo sapiens, medium instead of cisplatin, 72 hours
Procedure: (§7) Each of the breast cancer cell lines shown in Table 3 below was cultured using RPMI-1640 in a 100-mm culture dish, and then diluted to a density of 3,000 cells/90 μl using PBS.
(§8) Thereafter, 90 μl of each of the diluted breast cancer cell lines was treated with 10 μl of a 1:2 serial dilution of a hydrochloride salt of PHI-101 to a final concentration of up to 100 μM and cultured under 5% CO2 at 37° C. for 1 hour, and then treated with cisplatin at an IC50 concentration for each cell line. Groups treated with PHI-101 alone were additionally treated with 10 μl of medium instead of cisplatin. Next, each of the cell lines was cultured under 5% CO2 at 37° C. for 72 hours. Next, the cells were counted using a Celltiter-Glo assay kit (Promega), and cell viability was measured by expressing the cell count as a percentage relative to that of a control group not treated with PHI-101 and cisplatin.
(§9) IC50 for each breast cancer cell line was calculated by sigmoidal curve fitting using the PRIZM software, and the results of the calculation are shown in Table 4 below.

[17] = tested on: MCF7; assay: as above; assay type: cell-based; details: Homo sapiens, medium instead of cisplatin, 72 hours
Procedure: as §7, §8, §9

[18] = tested on: BT549; assay: as above; assay type: cell-based; details: Homo sapiens, BT-549; BT549 (triple-negative); medium instead of cisplatin; 72 hours
Procedure: as §7, §8, §9

[19] = tested on: BT474; assay: as above; assay type: cell-based; details: Homo sapiens, BT-474, medium instead of cisplatin, 72 hours
Procedure: as §7, §8, §9

[20] = tested on: ZR-75-1; assay: as above; assay type: cell-based; details: Homo sapiens, medium instead of cisplatin, 72 hours
Procedure: as §7, §8, §9

[21] = tested on: JIMT1; assay: Cell viability, olaparib alone or with PHI-101 (Example 3); assay type: cell-based; details: Homo sapiens, JIMT-1, medium instead of PHI-101, 72 hours
Procedure: (§10) Each of the breast cancer cell lines shown in Table 5 below was cultured with DMEM (Dulbecco's Modified Eagle Medium) or RPMI1640 in a 100-mm culture dish (SPL), and then diluted to a density of 3,000 cells/90 μl using PBS (phosphate-buffered saline) (Biosesang).
(§11) Thereafter, 90 μl of each of the diluted breast cancer cell lines was treated with 10 μl of a 1:2 serial dilution of olaparib to a final concentration of up to 100 μM, and cultured under 5% CO2 at 37° C. for 1 hour. Then, each breast cancer cell line was treated with a hydrochloride salt of PHI-101 to a final concentration of 1 μM. Groups treated with olaparib alone were additionally treated with 10μ of medium instead of PHI-101. Thereafter, each cell line was cultured under 5% CO2 at 37° C. for 72 hours. Then, the cells were counted using a Celltiter-Glo assay kit (Promega), and cell viability was measured by expressing the cell count as a percentage relative to that of a control group not treated with PHI-101 and olaparib.
(§12) IC50 for each breast cancer cell line was calculated by sigmoidal curve fitting using the PRIZM software, and the results of the calculation are shown in Table 6 below.

[22] = tested on: T47D; assay: as above; assay type: cell-based; details: Homo sapiens, medium instead of PHI-101, 72 hours
Procedure: as §10, §11, §12

[23] = tested on: MCF7; assay: as above; assay type: cell-based; details: Homo sapiens, medium instead of PHI-101, 72 hours
Procedure: as §10, §11, §12

[24] = tested on: SK-BR-3; assay: as above; assay type: cell-based; details: Homo sapiens, medium instead of PHI-101, 72 hours
Procedure: as §10, §11, §12

[25] = tested on: HS578T; assay: as above; assay type: cell-based; details: Homo sapiens, Hs-578T; HS578T (triple-negative); medium instead of PHI-101; 72 hours
Procedure: as §10, §11, §12

[26] = tested on: BT474; assay: as above; assay type: cell-based; details: Homo sapiens, BT-474, medium instead of PHI-101, 72 hours
Procedure: as §10, §11, §12

[27] = tested on: ZR-75-1; assay: as above; assay type: cell-based; details: Homo sapiens, medium instead of PHI-101, 72 hours
Procedure: as §10, §11, §12

[28] = tested on: MDA-MB-468; assay: as above; assay type: cell-based; details: Homo sapiens; MDA-MB-468 (triple-negative); medium instead of PHI-101; 72 hours
Procedure: as §10, §11, §12

IC50 [1]: 0.27 µM
IC50 [2]: 4.03 µM
IC50 [3]: 17.8 µM
IC50 [4]: 3.71 µM
IC50 [5]: 1.63 µM
IC50 [6]: 4.11 µM
IC50 [7]: 1.8 µM
IC50 [8]: 4.97 µM
IC50 [9]: 14.7 µM
IC50 [10]: 11.4 µM
IC50 [11]: 3.74 µM
IC50 [12]: 1.51 µM
IC50 [16]: 19.2 µM
IC50 [17]: 3.23 µM
IC50 [18]: 1.71 µM
IC50 [19]: 14.3 µM
Structure (SMILES): NC(=O)Nc1cc(C#Cc2cccc(F)c2)sc1C(=O)N[C@H]1CCCNC1 [PHI-101, (S)-5-((3-fluorophenyl)ethynyl)-N-(piperidin-3-yl)-3-ureido thiophene-2-carboxamide]
T/C [13]: 84%
TGI [13]: 16%
Tumor volume (52 days) [13]: 443 ± 18 mm^3
Change in the body weight of each mouse [14]: no significant change
Growth inhibition rate of the Herceptin-resistant tumor, compared with Herceptin group [15]: higher
IC50 [20]: 11.8 µM

IC50 [22]: 77 µM
IC50 [23]: 98 µM
IC50 [24]: 127 µM
IC50 [26]: 74.6 µM
IC50 [28]: 47.1 µM
Structure (SMILES): O=C(c1cc(Cc2n[nH]c(=O)c3ccccc23)ccc1F)N1CCN(C(=O)C2CC2)CC1 [olaparib]
T/C [13]: 76%
TGI [13]: 24%
Tumor volume (52 days) [13]: 402 ± 25 mm^3
Change in the body weight of each mouse [14]: no significant change
IC50 [21]: 520 µM
IC50 [25]: 186 µM
IC50 [27]: 352 µM

Reference: patent publication US11938123B2, “Use of 2,3,5-substituted thiophene compound to prevent, ameliorate, or treat breast cancers” (Pharos iBio Co., Ltd., priority 2018, dated 2024)
